Laboratory results as given in paper PMC9895451, “Genetic and pharmacologic inhibition of ALDH1A3 as a treatment of β-cell failure” (Nature Communications, 2023).

Molecular target: T1, ALDH1A3 (Homo sapiens, UniProt P47895)
T1 sequence (P47895 2-512): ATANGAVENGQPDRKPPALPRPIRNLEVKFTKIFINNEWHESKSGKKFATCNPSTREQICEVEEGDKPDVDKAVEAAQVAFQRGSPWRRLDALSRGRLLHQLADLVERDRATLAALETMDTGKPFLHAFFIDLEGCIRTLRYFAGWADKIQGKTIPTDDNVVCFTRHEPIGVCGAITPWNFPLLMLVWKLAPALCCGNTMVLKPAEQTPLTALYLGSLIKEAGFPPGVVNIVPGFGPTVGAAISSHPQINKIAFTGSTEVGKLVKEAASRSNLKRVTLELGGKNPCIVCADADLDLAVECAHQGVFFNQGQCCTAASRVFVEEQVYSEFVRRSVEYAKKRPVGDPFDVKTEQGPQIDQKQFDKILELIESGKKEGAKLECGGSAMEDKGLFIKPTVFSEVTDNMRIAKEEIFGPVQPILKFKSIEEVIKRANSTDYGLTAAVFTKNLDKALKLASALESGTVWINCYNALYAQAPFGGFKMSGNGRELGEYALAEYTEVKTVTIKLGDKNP
Assay: Aldefluor assay in A375 cells; also recombinant human ALDH1a3 in crude bacterial lysate (resazurin/diaphorase-coupled)
Format: cell-based

CCc1cnccc1C(=O)Nc1cc2c(cc1F)NC(=O)CC2 [KOTX1]
IC50: 5.1 nM
